According to patent US5359121A, “Glycine derivative monosodium salt tetrahydrate” (Ono Pharmaceutical Co., Ltd., priority 1991, dated 1994):

Assays:
[1] = Experiment of hygroscopicity; type: physicochemical; conditions: exposure to air / 25° C., humidity of 75%
Protocol: The hygroscopicity of each compound was measured by the ratio of its weight to lapse of time.

[2] = Toxicity

SMILES	hygroscopicity (result in words) ([1]; listed as the monosodium salt of the compound of the formula (II), monosodium salt)	hygroscopicity (result in words) ([1]; monosodium salt)	toxicity [2]	hygroscopicity (result in words) [1]
CC(C)(C)C(=O)Oc1ccc(S(=O)(=O)Nc2ccccc2C(=O)NCC(=O)[O-])cc1.[Na+] [the comparison compound, N-[o-(p-pivaloyloxybenzenesulfonylamino)benzoyl]glycine monosodium salt]	hygroscopic	increased its weight with lapse of time	–	–
CC(C)(C)C(=O)Oc1ccc(S(=O)(=O)Nc2ccccc2C(=O)NCC(=O)[O-])cc1.O.O.O.O.[Na+] [the present invention compound, N-[o-(p-pivaloyloxybenzenesulfonylamino)benzoyl]glycine monosodium salt tetrahydrate]	–	–	very low	no change of its weight
